Assay results: US20230053688A1, “METHODS TO ALTER LATENCY IN EBV+ MALIGNANCIES” (Cornell University, priority 2020, published 2023)

How the values were obtained:
[1] = test system: BZLF1 in Rael, Mutu I, and Kem I cells; test: qRT-PCR for BZLF1 (lytic induction); format: cell-based, EBV; details: all three cell lines
[2] = test system: first 13 kB of the EBV genome in Kem I, Rael, and Mutu I cells; test: Methyl-Capture sequencing of cell lines; format: cell-based
in vitro [3] = details: human, Rael cells
Description: (§5) Cell viability was determined using CellTiter-Glo (Promega) and the GloMax® Multi+ detection system (Promega).
(§6) Cell viability was determined using an ATP based luminescent assay (CellTiter-Glo, Promega) and the GloMax® Multi+ detection system (Promega). IC50 values were calculated using Prism 6 software.
(§7) To determine if induction of LMP1 and EBNA3 were linked to hypomethylating agent-induced cell death, cells were exposed to decitabine or 5-azacytadine over a range of doses and cell viability evaluated with the ATP-based Cell Titer-Glo® assay.

Kem I xenografts = test: BL xenograft, immunohistochemistry of tumors for viral antigens; format: in vivo, mice
Description: (§1) Cell blocks were generated from cell lines in suspension by fixation in 10% formalin. Immunohistochemistry on cell blocks and mouse tumors was performed with the following antibodies: EBNA2 (abcam #ab90543), LMP1 (Dako #M0897), BZLF1 (Santa Cruz #SC-53904), CD8 (Leica #PA0183), PD-1 (Dako #M3653), PD-L1 (Cell Marque #315M-98). The Halo® image analysis software program (Indica Labs) was used to quantify immunohistochemical stains.
(§2) To evaluate the effect of decitabine on viral antigen expression in-vivo, we generated Mutu I, Kem I, and Rael xenografts. Upon engraftment, mice were treated with a 7-day course of decitabine (0.5 mg/kg or 1 mg/kg daily) or vehicle control. After treatment tumors were evaluated by immunohistochemistry. Vehicle treated mice had minimal or no expression of EBNA2 and LMP1 (FIGS. 3A-B). […] LMP1 expression was increased in Kem xenografts (p=0.04, FIG. 3B).
(§3) In addition to modulating latent gene expression, 5-azacytidine is known to activate lytic programming in EBV (Bhende, Seaman et al. 2004, Chan, Tao et al. 2004, Bergbauer, Kalla et al. 2010, Kalla, Gobel et al. 2012, Woellmer, Arteaga-Salas et al. 2012). Upon exposure to 5-azacytidine, the Rael cell line generates lytic and latent antigens but in distinct cell populations (Masucci, Contreras-Salazar et al. 1989). To determine if the lytic program was being activated after exposure to decitabine qRT-PCR was performed for BZLF1, the gene responsible for activating early lytic genes in Rael, Mutu I, and Kem I cells. […] In the xenograft models, BLZF1 was evaluated by IHC.

Mutu I xenografts = test: as above; format: in vivo, mice
Description: as §1, §2, §3

Rael xenografts = test: as above; format: in vivo, mice
Description: as §1, §2
If induction of immunogenic antigens were to be used as therapeutic approach in EBV+ lymphomas, it would be important to ensure that the induction persists after removal of drug to allow time for an adequate T-cell response. The durability of latency III induction was evaluated by treating cell lines with 250 nM of decitabine for 3 days and then evaluating LMP1 and Cp promoter expression after washout of the drug. […] Rael xenografts were also evaluated for durability of induction in-vivo. […] Mice observed at later timepoints continued to express EBNA2 with some areas of tumor remaining EBNA2 positive as late as 63 days post-treatment (FIG. 4C).
In addition to modulating latent gene expression, 5-azacytidine is known to activate lytic programming in EBV (Bhende, Seaman et al. 2004, Chan, Tao et al. 2004, Bergbauer, Kalla et al. 2010, Kalla, Gobel et al. 2012, Woellmer, Arteaga-Salas et al. 2012).

[4] = test system: subcutaneous xenografts of Rael cells; format: in vivo, NSG mice
[5] = test system: EBV genome in Kem I, Rael, and Mutu I cells; test: Quantitative DNA methylation analysis using MassARRAY EpiTYPER; format: cell-based; details: 48 hours, all three latency I cell lines, including Cp promoter and LMP1/2 loci
[6] = test system: EBNA2 and LMP1 in Mutu I cells; test: Immunohistochemistry on cell blocks with HALO quantification; format: cell-based, EBV; details: decitabine at 500 nM, 48 hours
Description: as §1
(§4) Next it was determined the percentage of cells that convert to expressing latency […] antigens after treatment with decitabine or 5-azacytadine. To do this, EBV antigen expression at the single-cell level was evaluated by immunohistochemistry (IHC) from cell blocks. Cells were treated with 5-azacytidine, decitabine, or vehicle control. Cell blocks were then evaluated by IHC for LMP1 and EBNA2. The percentage of positive cells was quantified with HALO image analysis. […] 5-azacytidine induced a more modest expression of EBNA2 and LMP1 across the three cell lines (FIGS. 2E-F). Based on these observations, decitabine was further investigated as a potential agent to induce expression of immunogenic viral antigens in latency I tumors.

[7] = test system: EBNA2 and LMP1 in Rael cells; test: as above; format: cell-based, EBV; details: decitabine at 500 nM, 48 hours
Description: as §1, §4

[8] = test system: EBNA2 and LMP1 in Kem I cells; test: as above; format: cell-based, EBV; details: decitabine at 500 nM, 48 hours
Description: as §1, §4

[9] = test system: LMP1 and Cp transcripts in Kem I, Mutu I, and Rael cell lines; format: cell-based, EBV
Mutu I = test: Cell viability, CellTiter-Glo; details: read-out: 48 Hour IC50
Description: as §5, §6, §7

Mutu I cells = test: Cr51 release assay with EBV-CTLs; format: cell-based; details: Mutu I cells treated at 250 nM for 72 hours, 25:1 effector to target ratio
Kem I = test: Cell viability, CellTiter-Glo; details: 48 h, read-out: 48 Hour IC50
Description: as §5, §6, §7

[10] = Cell viability, CellTiter-Glo; details: human, Kem I cells
Description: as §5, §6, §7

Rael = test: Cell viability, CellTiter-Glo; details: read-out: 48 Hour IC50
Description: as §5, §6, §7

in vitro [11] = details: human, Mutu I cells
Description: as §5, §6, §7

BL cells = test: Cell viability, CellTiter-Glo, statements for the BL cell panel
Description: as §5, §6, §7

[12] = test system: LMP1 and EBNA3C proteins in BL cells; test: Immunoblot for viral proteins in BL cells; format: cell-based, EBV; details: 48 hours
Description: Immunoblot was performed with the standard procedure using the following antibodies: β-actin (GeneTex), BZLF1 (Santa Cruz), EBNA1 (Santa Cruz), EBNA2 (AbCam), EBNA3C (gift from Benjamin Gewurz), GAPDH (GeneTex), and LMP1 (AbCam).
Since decitabine and 5-azacytadine were the top hits on the epigenetic screen, the effect of these agents on latency II/III transcript and protein expression was investigated as well as the dose-response in a panel of BL cell lines. BL cells were treated with decitabine or 5-azacytidine over a range of doses. Viral antigen expression was evaluated by qRT-PCR, immunoblot, and immunohistochemistry. […] This was associated with upregulation of LMP1 and EBNA3C proteins (FIG. 2B).

Rael cells = test: Cr51 release assay with EBV-CTLs; format: cell-based; details: Rael cells treated at 250 nM for 72 hours, 25:1 effector to target ratio

Compound: Nc1ncn([C@H]2C[C@H](O)[C@@H](CO)O2)c(=O)n1 [decitabine, 5-aza-2′-deoxycytidine]
- BZLF1 (qRT-PCR) over time after removal of drug [1]: decreased over time after removal of drug
- BZLF1 (qRT-PCR) ([1]; after exposure for 72 hours): increase
- methylation across the covered areas (Methyl-Capture sequencing) ([2]; after treatment, all three cell lines): global hypomethylation
- methylation after removal of drug (Methyl-Capture sequencing) ([2]; drug 48 hours followed by 7-day washout): remained hypomethylated
- viability (in vitro [3]): 102%
- LMP1 expression in tumors (IHC) (Kem I xenografts; 7-day course, 0.5 mg/kg or 1 mg/kg daily IP, p=0.04): increased
- BZLF1 by IHC in tumors (Kem I xenografts; Kem I xenograft, 7 days of treatment): minimal or no induction
- EBNA2 expression in tumors (IHC) (Mutu I xenografts; 7-day course, 0.5 mg/kg or 1 mg/kg daily IP, p=0.044): upregulation was observed
- BZLF1 by IHC in tumors (Mutu I xenografts; Mutu I xenograft, 7 days of treatment): induction was observed
- EBNA2 expression in tumors (IHC) (Rael xenografts; 7-day course, 0.5 mg/kg or 1 mg/kg daily IP, p=0.017): upregulation was observed
- BZLF1 by IHC in tumors (Rael xenografts; Rael xenograft, 7 days of treatment): minimal or no induction
- latest time with areas of tumor remaining EBNA2 positive (Rael xenografts; post-treatment): 63 days
- percentage of EBNA2 positive cells after discontinuation of drug (Rael xenografts; tumors evaluated 4 days after a 7-day course): persistent induction with no decrement
- latent antigens EBNA2 and LMP1 in tumors ([4]; daily for 7 days, 1 mg/kg): induction
- lytic protein BZLF1 in tumors ([4]; daily for 7 days, 1 mg/kg): minimal change
- PD-L1 expression in tumors ([4]; mouse, in vivo): did not increase
- DNA methylation across the EBV viral genome (MassARRAY) [5]: loss of methylation
- percentage of EBNA2 positive cells [6]: 28.3%
- percentage of LMP1 positive cells [6]: 41.8%
- percentage of EBNA2 positive cells [7]: 37.2%
- percentage of LMP1 positive cells [7]: 27.4%
- percentage of EBNA2 positive cells [8]: 57.8%
- percentage of LMP1 positive cells [8]: 54.9%
- LMP1 and Cp expression by qRT-PCR after washout ([9]; 250 nM for 3 days, then 1, 3, 5, and 7 days after washout): persists with minimal decrement
- lowest dose with dose dependent induction of LMP1 and Cp transcripts ([9]; BL cells, 48 hours of treatment): 25 nM
- IC50 (Mutu I): > 5 µM
- % lysis by EBNA3A reactive EBV-CTLs (Mutu I cells): 16.17%
- % lysis by LMP1-reactive EBV-CTLs (Mutu I cells): 74.11%
- IC50 (Kem I): > 5 µM
- viability [10]: 128%
- IC50 (Rael): > 5 µM
- viability (in vitro [11]): 62%
- IC50 (BL cells): > 5 µM
- LMP1 and EBNA3C proteins (immunoblot) [12]: upregulation
- % lysis by EBNA3C reactive EBV-CTLs (Rael cells): 26.07%
